Test results taken from patent US20140318000A1, “COMBINING ALGAE CULTIVATION AND CO2 CAPTURE” (Nederlandse Organisatie voor …, priority 2011, published 2014).
“Also recorded” adds a separate entry of the source.

Legend:
[1] = CO2 uptake in absorbent liquid in a sealed beaker fed continuously with flue gas, online CO2 analyser; format: physicochemical; conditions: 0.2 M taurine, 4 l liquid, flue gas 7.2% CO2, total period 100 000 s
Procedure: CO2 is fed continuously to a sealed beaker with water and with an absorp absorbent liquid (0.2 M taurine). The height of the liquids is 30 cm the total amount of liquids is 4 l. For water the uptake, that is the amount of CO2, in %, leaving the beaker as function of the time, is given for two flow rates. […] In FIG. 4, the CO2 concentration, in %, leaving the beaker as function of time is depicted. Experiments were conducted in a sealed beaker, where flue gas was fed, and where the gaseous stream leaving the beaker was analysed with an online CO2 analyser. The composition of the ‘flue gas’ was 7.2% CO2 and […].

Spirulina platensis = test: Growth of Spirulina platensis (dry algae density) in growth medium combined with absorbent liquid loaded with CO2; format: cell-based
Procedure: For the absorbent liquids standard procedures were used to prepare the solvent solutions. For the absorbent liquids stock solutions with a molarity of 2 M were prepared. To test the growth, the molarities of the solutions were adjusted at the start of the experiments by adding a given amount of the aqueous growth medium.
The growth of the algae was tested with different solutions composed from different ratios (volume based) of growth media and absorbent liquid.
Subsequently, a number of dedicated experiments were performed were a specific algae (and growth medium) was combined with a given absorbent liquid in the presence of CO2. The CO2 was added in two different ways.
In the first way, so-called batch operation, the algae, growth medium, and the absorbent liquid (with a given molarity) were prepared in a beaker (of about 1 l) or reactor (available with a volume of 10 l and 20 l) and the CO2 was bubbled through for at least 12 h to saturate the solution with a high flow rate (in the order of 200 ml/min).
During the experiments the pH was measured on a daily basis.
At given times a small sample was taken from the beaker (or reactor) to analyse the micro-algae. The volume of the sample was determined, the sample was then dried in an oven, and subsequently the mass determined (by weighing) to obtain the dry algae density (g/l).
For various tests, Arthrospira (Spirulina) platensis was used. The Spirulina strain is kept in Schlösser's medium (Schlösser, Berichten der Deutchen Botanischen Gesellschaft 1982, 95, 181-276). Schlösser's medium contained per litre: 13.6 g of NaHCO3, 4.03 g of Na2CO3, 0.5 g of K2HPO4, 2.5 g of NaNO3, 1 g of K2SO4, 1 g of NaCl, 0.2 g of MgSO4.7H2O, 0.04 g of CaCl2.2H2O, 0.01 g of FeSO4.7H2O, and 0.08 g of EDTA (ethylenediaminetetraacetic). Some micronutrients are added as well.
The overall composition based on 1 l of total solution was obtained by combining: 400 ml of the growth medium, for example the Schlösser's medium, with 400 ml of an aqueous amino acids salts, with as ‘counter ion’ potassium hydroxide, solution, where the amount of amino acid was varied between 0.1 M and 1 M. Subsequently, 200 ml of algae solution was added.

NCCS(=O)(=O)O [taurine, 2-aminoethanesulphonic acid]
CO2 leaving the beaker [1]: no CO2 was measured; also recorded: almost no CO2 is leaving the beaker
dry algae density (Spirulina platensis; Spirulina platensis, 0.1 M taurine as absorbent liquid): about 2 g/l
dry algae density, initial constant level (Spirulina platensis; Spirulina platensis, 0.2 M taurine, solution saturated with CO2 at start, before reloading at day 20): about 1.4 g/l
final dry algae density (Spirulina platensis; Spirulina, 0.2 M taurine initially saturated with CO2, after about 15 days): 2.1 g/L
dry algae density after growth period (Spirulina platensis; Spirulina, 0.2 M taurine initially saturated with CO2, increase from 0.25 g/l in about 5 days after start-up): 1.7 g/L
